{"source": "patent US20250345446A1", "about": "(Draupnir Bio ApS, priority 2022, published 2025)", "molecules": {"B1": {"name": "REALRWDAPLRDPAPRQLL (peptide)", "peptide": "REALRWDAPLRDPAPRQLL"}, "B2": {"name": "REAPRWDAPLRDPALRQLL (peptide)", "peptide": "REAPRWDAPLRDPALRQLL"}, "B3": {"name": "REAPRWDAPLRDPALFQLL (peptide)", "peptide": "REAPRWDAPLRDPALFQLL"}, "B4": {"name": "REAPRWDAPLRDPALRYLL (peptide)", "peptide": "REAPRWDAPLRDPALRYLL"}, "B5": {"name": "REAPRWDAPLRDPALRYYL (peptide)", "peptide": "REAPRWDAPLRDPALRYYL"}, "B6": {"name": "H-FYIL-OH (peptide)", "peptide": "H-FYIL-OH"}, "B7": {"name": "H-RQFL-OH (peptide)", "peptide": "H-RQFL-OH"}, "B8": {"name": "LQLL (peptide)", "peptide": "LQLL"}, "B9": {"name": "H-RQYL-OH (peptide)", "peptide": "H-RQYL-OH"}, "B10": {"name": "H-RYFL-OH (peptide)", "peptide": "H-RYFL-OH"}, "B11": {"name": "IQLL (peptide)", "peptide": "IQLL"}, "B12": {"name": "H-RYIL-OH (peptide)", "peptide": "H-RYIL-OH"}, "B13": {"name": "H-KQLL-OH (peptide)", "peptide": "H-KQLL-OH"}, "B14": {"name": "H-RYYL-OH (peptide)", "peptide": "H-RYYL-OH"}, "B15": {"name": "H-PYIL-OH (peptide)", "peptide": "H-PYIL-OH"}, "B16": {"name": "H-PQLL-OH (peptide)", "peptide": "H-PQLL-OH"}, "B17": {"name": "H-PYLL-OH (peptide)", "peptide": "H-PYLL-OH"}, "B18": {"name": "GGSGGGGSGGGGSGGRQLL-OH (peptide)", "peptide": "GGSGGGGSGGGGSGGRQLL-OH"}}, "note": "Residues, ends and D or L forms follow the SMILES beside them. No end group written: not given here."}
{"target": "T1, soluble ectodomain of sortilin-6his (Homo sapiens, UniProt Q99523, V650M)", "T1 construct": "the soluble ectodomain of sortilin-6his is measured by microscale thermophoresis (MST)", "T1 sequence (Q99523 with tags, fused parts or gaps V650M)": "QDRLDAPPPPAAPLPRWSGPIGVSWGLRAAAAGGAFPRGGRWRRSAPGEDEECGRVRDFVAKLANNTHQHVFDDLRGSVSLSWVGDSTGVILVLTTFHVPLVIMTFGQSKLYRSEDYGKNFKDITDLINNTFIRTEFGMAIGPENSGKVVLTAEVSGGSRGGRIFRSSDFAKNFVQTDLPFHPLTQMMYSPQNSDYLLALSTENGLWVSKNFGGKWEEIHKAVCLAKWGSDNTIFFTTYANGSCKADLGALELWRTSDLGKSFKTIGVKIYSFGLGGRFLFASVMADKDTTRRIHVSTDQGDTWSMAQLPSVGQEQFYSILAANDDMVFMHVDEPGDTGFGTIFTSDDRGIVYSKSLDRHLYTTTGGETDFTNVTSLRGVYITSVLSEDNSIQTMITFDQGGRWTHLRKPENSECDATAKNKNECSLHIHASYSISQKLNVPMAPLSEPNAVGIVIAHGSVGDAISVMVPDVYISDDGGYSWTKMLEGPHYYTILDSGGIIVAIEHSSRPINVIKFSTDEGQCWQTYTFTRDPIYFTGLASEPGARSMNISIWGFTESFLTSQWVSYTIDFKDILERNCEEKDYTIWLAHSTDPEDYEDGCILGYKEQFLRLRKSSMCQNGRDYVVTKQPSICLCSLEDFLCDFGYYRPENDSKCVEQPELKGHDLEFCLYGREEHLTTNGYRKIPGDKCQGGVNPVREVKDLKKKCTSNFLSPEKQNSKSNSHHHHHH", "assay": "MST binding to soluble ectodomain of sortilin-6his", "conditions": "Table 3; monofunctional peptides; MST; read-out: KD score, binding to sortilin (Kd)", "units": {"Kd": "nM"}}
{"molecule": "CC(C)C[C@H](NC(=O)[C@H](CC(C)C)NC(=O)[C@H](CCC(N)=O)NC(=O)[C@@H]1CCCN1)C(=O)O", "note": "[compound 25] (H-PQLL-OH)", "Kd": "25 to 250"}
{"molecule": "CC(C)C[C@H](NC(=O)[C@H](CCC(N)=O)NC(=O)[C@@H](N)CCCNC(=N)N)C(=O)N[C@@H](Cc1ccccc1)C(=O)O", "note": "[compound 164] (H-RQLF-OH)", "Kd": "> 2500"}
{"molecule": "CC(C)C[C@H](NC(=O)[C@H](CC(C)C)NC(=O)[C@H](CCC(N)=O)NC(=O)[C@@H](N)CCCCN)C(=O)O", "note": "[compound 24] (H-KQLL-OH)", "Kd": "25 to 250"}
{"molecule": "CC(C)C[C@H](NC(=O)[C@H](CC(C)C)NC(=O)[C@H](CCC(N)=O)NC(=O)[C@@H](N)Cc1c[nH]cn1)C(=O)O", "note": "[compound 41] (H-HQLL-OH; N-terminus assumed)", "Kd": "> 2500"}
{"molecule": "CC(C)C[C@H](N)C(=O)N[C@@H](Cc1ccc(O)cc1)C(=O)N[C@@H](CCC(=O)O)C(=O)N[C@@H](CC(N)=O)C(N)=O", "note": "[compound 64] (H-LYEN-NH2; N-terminus assumed)", "Kd": "> 2500"}
{"molecule": "CC[C@H](C)[C@H](NC(=O)[C@H](Cc1ccc(O)cc1)NC(=O)[C@@H]1CCCN1C(=O)[C@H](CCCNC(=N)N)NC(=O)[C@H](CCCNC(=N)N)NC(=O)[C@@H]1CCCN1C(=O)[C@H](CCCCN)NC(=O)[C@H](CC(N)=O)NC(=O)[C@H](CCC(=O)O)NC(=O)[C@H](Cc1ccc(O)cc1)NC(=O)[C@@H](N)CC(C)C)C(=O)N[C@@H](CC(C)C)C(=O)O", "note": "[compound 56]", "Kd": "25 to 250"}
{"molecule": "CC[C@H](C)[C@H](NC(=O)[C@H](CC(C)C)NC(=O)[C@H](CCC(N)=O)NC(=O)[C@@H](N)CCCNC(=N)N)C(=O)O", "note": "[compound 163] (H-RQLI-OH)", "Kd": "> 2500"}
{"molecule": "CC[C@H](C)[C@H](NC(=O)[C@H](Cc1ccc(O)cc1)NC(=O)[C@@H](N)Cc1ccccc1)C(=O)N[C@@H](CC(C)C)C(=O)O", "note": "[compound 31] (H-FYIL-OH)", "Kd": "250 to 2500"}
{"molecule": "H-ITVDPRLFKKRRLRSPRVLF-NH2 [compound 48]", "Kd": "> 2500"}
{"target": "T1, soluble ectodomain of sortilin-6his", "assay": "MST binding to soluble ectodomain of sortilin-6his", "conditions": "Table 4; small molecule bifunctional compounds; MST"}
{"molecule": "Cc1cc(-c2ccc(C(=O)NCCCCCCCCCCCC(=O)NCC(=O)N3CCN(c4ncc(-c5ccc6c(n5)N(Cc5cccnc5C#N)C(C)(C)C6=O)cn4)C[C@H]3C)cc2)cc(NC(=O)c2ccc(C(F)(F)F)cc2C(=O)O)n1", "note": "[BF146, 2-[[4-[4-[[12-[[2-[(2R)-4-[5-[1-[(2-cyano-3-pyridyl)methyl]-2,2-dimethyl-3-oxo-pyrrolo[2,3-b]pyridin-6-yl]pyrimidin-2-yl]-2-methyl-piperazin-1-yl]-2-oxo-ethyl]amino]-12-oxo-dodecyl]carbamoyl]phenyl]-6-methyl-2-pyridyl]carbamoyl]-5-(trifluoromethyl)benzoic acid]", "KD score, binding to sortilin (Kd)": 0}
{"target": "T1, soluble ectodomain of sortilin-6his", "assay": "MST binding to soluble ectodomain of sortilin-6his", "conditions": "Table 4; small molecule bifunctional compounds; MST; read-out: KD score, binding to sortilin (Kd)", "units": {"Kd": "nM"}}
{"molecule": "CC(C)(C)CC[C@H](NC(=O)c1ccc(Oc2cccc(C(=O)NCCOCCOCCOCCOCCOCCNc3ncc(-c4ccc5c(n4)N(Cc4cccnc4C#N)C(C)(C)C5=O)cn3)c2)nc1)C(=O)O", "note": "[BF067, (2S)-2-[[6-[3-[2-[2-[2-[2-[2-[2-[[5-[1-[(2-cyano-3-pyridyl)methyl]-2,2-dimethyl-3-oxo-pyrrolo[2,3-b]pyridin-6-yl]pyrimidin-2-yl]amino]ethoxy]ethoxy]ethoxy]ethoxy]ethoxy]ethylcarbamoyl]phenoxy]pyridine-3-carbonyl]amino]-5,5-dimethyl-hexanoic acid]", "Kd": "< 1"}
{"molecule": "CC(C)(C)CC[C@H](NC(=O)c1ccc(Oc2cccc(OCC(=O)NCCOCCOCCOCCNc3ncc(-c4ccc5c(n4)N(Cc4cccnc4C#N)C(C)(C)C5=O)cn3)c2)nc1)C(=O)O", "note": "[BF137, (2S)-2-[[6-[3-[2-[2-[2-[2-[2-[[5-[1-[(2-cyano-3-pyridyl)methyl]-2,2-dimethyl-3-oxo-pyrrolo[2,3-b]pyridin-6-yl]pyrimidin-2-yl]amino]ethoxy]ethoxy]ethoxy]ethylamino]-2-oxo-ethoxy]phenoxy]pyridine-3-carbonyl]amino]-5,5-dimethyl-hexanoic acid]", "Kd": "< 1"}
{"molecule": "Cc1nc2cc(F)c(-c3cnc(OCCN4CC(n5cc(COCC(=O)N6CC(OCCNC(=O)COc7cccc(Oc8ccc(C(=O)N[C@@H](CCC(C)(C)C)C(=O)O)cn8)c7)C6)nn5)C4)nc3)nc2c(N[C@H](C)c2cc(C#N)ccc2F)c1Cl", "note": "[BF089, (2S)-2-[[6-[3-[2-[2-[1-[2-[[1-[1-[2-[5-[7-chloro-8-[[(1R)-1-(5-cyano-2-fluoro-phenyl)ethyl]amino]-3-fluoro-6-methyl-1,5-naphthyridin-2-yl]pyrimidin-2-yl]oxyethyl]azetidin-3-yl]triazol-4-yl]methoxy]acetyl]azetidin-3-yl]oxyethylamino]-2-oxo-ethoxy]phenoxy]pyridine-3-carbonyl]amino]-5,5-dimethyl-hexanoic acid]", "Kd": "< 1"}
{"molecule": "C[C@@H]1CN(c2ncc(-c3ccc4c(n3)N(Cc3cccnc3C#N)C(C)(C)C4=O)cn2)CCN1C(=O)COCCOCCNC(=O)c1cccc(Oc2ccc(C(=O)N[C@@H](CCC(C)(C)C)C(=O)O)cn2)c1", "note": "[BF051, (2S)-2-[[6-[3-[2-[2-[2-[(2R)-4-[5-[1-[(2-cyano-3-pyridyl)methyl]-2,2-dimethyl-3-oxo-pyrrolo[2,3-b]pyridin-6-yl]pyrimidin-2-yl]-2-methyl-piperazin-1-yl]-2-oxo-ethoxy]ethoxy]ethylcarbamoyl]phenoxy]pyridine-3-carbonyl]amino]-5,5-dimethyl-hexanoic acid]", "Kd": "1 to 10"}
{"molecule": "C[C@@H]1CN(c2ncc(-c3ccc4c(n3)N(Cc3cccnc3C#N)C(C)(C)C4=O)cn2)CCN1C(=O)Cn1cc(COCCOCCOCC(=O)N2CC(Oc3cccc(Oc4ccc(C(=O)N[C@@H](CCC(C)(C)C)C(=O)O)cn4)c3)C2)nn1", "note": "[BF111, (2S)-2-[[6-[3-[1-[2-[2-[2-[[1-[2-[(2R)-4-[5-[1-[(2-cyano-3-pyridyl)methyl]-2,2-dimethyl-3-oxo-pyrrolo[2,3-b]pyridin-6-yl]pyrimidin-2-yl]-2-methyl-piperazin-1-yl]-2-oxo-ethyl]triazol-4-yl]methoxy]ethoxy]ethoxy]acetyl]azetidin-3-yl]oxyphenoxy]pyridine-3-carbonyl]amino]-5,5-dimethyl-hexanoic acid]", "Kd": "< 1"}
{"molecule": "C[C@@H]1CN(c2ncc(-c3ccc4c(n3)N(Cc3cccnc3C#N)C(C)(C)C4=O)cn2)CCN1C(=O)COCCCCCCNC(=O)COc1cccc(Oc2ccc(C(=O)N[C@@H](CCC(C)(C)C)C(=O)O)cn2)c1", "note": "[BF036]", "Kd": "1 to 10"}
{"molecule": "C[C@@H]1CN(c2ncc(-c3ccc4c(n3)N(Cc3cccnc3C#N)C(C)(C)C4=O)cn2)CCN1C(=O)COCCCCCCNc1cccc(Oc2ccc(C(=O)N[C@@H](CCC(C)(C)C)C(=O)O)cn2)c1", "note": "[BF039]", "Kd": "1 to 10"}
{"molecule": "C[C@@H]1CN(c2ncc(-c3ccc4c(n3)N(Cc3cccnc3C#N)C(C)(C)C4=O)cn2)CCN1C(=O)CNC(=O)CCCCCOCCOCCNC(=O)c1cccc(Oc2ccc(C(=O)N[C@@H](CCC(C)(C)C)C(=O)O)cn2)c1", "note": "[BF100, (2S)-2-[[6-[3-[2-[2-[6-[[2-[(2R)-4-[5-[1-[(2-cyano-3-pyridyl)methyl]-2,2-dimethyl-3-oxo-pyrrolo[2,3-b]pyridin-6-yl]pyrimidin-2-yl]-2-methyl-piperazin-1-yl]-2-oxo-ethyl]amino]-6-oxo-hexoxy]ethoxy]ethylcarbamoyl]phenoxy]pyridine-3-carbonyl]amino]-5,5-dimethyl-hexanoic acid]", "Kd": "< 1"}
{"molecule": "CC(C)(C)CC[C@H](NC(=O)c1ccc(Oc2cccc(C(=O)NCCOCCOc3ncc(-c4ccc5c(n4)N(Cc4cccnc4C#N)C(C)(C)C5=O)cn3)c2)nc1)C(=O)O", "note": "[BF053]", "Kd": "1 to 10"}
{"molecule": "C[C@@H]1CN(c2ncc(-c3ccc4c(n3)N(Cc3cccnc3C#N)C(C)(C)C4=O)cn2)CCN1C(=O)COCCCCCCCCNc1cccc(Oc2ccc(C(=O)N[C@@H](CCC(C)(C)C)C(=O)O)cn2)c1", "note": "[BF038]", "Kd": "> 250"}
{"target": "T2, Sortilin-6His (Homo sapiens (Human), UniProt Q99523 78-755)", "T2 construct": "In MST it was labelled non-covalently with RED-tris-NTA; also called soluble ectodomain of sortilin-6his; fluorescent sortilin-6his", "T2 sequence (Q99523 78-755 V650M limits assumed)": "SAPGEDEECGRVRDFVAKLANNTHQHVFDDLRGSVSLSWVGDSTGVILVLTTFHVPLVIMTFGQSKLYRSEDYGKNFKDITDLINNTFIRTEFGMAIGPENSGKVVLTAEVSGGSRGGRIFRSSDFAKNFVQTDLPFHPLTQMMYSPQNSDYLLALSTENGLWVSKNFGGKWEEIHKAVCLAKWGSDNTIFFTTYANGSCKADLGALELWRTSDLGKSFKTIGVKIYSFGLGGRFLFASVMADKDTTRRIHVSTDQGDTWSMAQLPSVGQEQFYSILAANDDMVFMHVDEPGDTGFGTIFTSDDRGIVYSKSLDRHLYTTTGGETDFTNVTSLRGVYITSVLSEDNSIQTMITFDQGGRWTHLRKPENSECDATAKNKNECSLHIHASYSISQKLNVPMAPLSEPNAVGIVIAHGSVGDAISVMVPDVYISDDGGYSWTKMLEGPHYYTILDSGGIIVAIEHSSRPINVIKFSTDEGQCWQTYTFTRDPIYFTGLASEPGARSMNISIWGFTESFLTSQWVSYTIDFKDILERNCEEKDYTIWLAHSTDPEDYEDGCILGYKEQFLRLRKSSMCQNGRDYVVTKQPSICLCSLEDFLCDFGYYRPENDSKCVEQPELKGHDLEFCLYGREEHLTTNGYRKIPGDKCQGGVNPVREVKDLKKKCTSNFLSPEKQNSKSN", "assay": "MST on labelled sortilin-6his ectodomain; KD score: +++ <25 nM, ++ 25-250 nM, + 250-2500 nM, 0 >2500 nM", "conditions": "not given", "units": {"KD": "nM"}}
{"molecule": "B1", "KD": "< 25"}
{"molecule": "B2", "KD": "< 25"}
{"molecule": "B3", "KD": "< 25"}
{"molecule": "B4", "KD": "< 25"}
{"molecule": "B5", "KD": "25 to 250"}
{"molecule": "B6", "KD": "250 to 2500"}
{"molecule": "B7", "KD": "250 to 2500"}
{"molecule": "B8", "KD": "250 to 2500"}
{"molecule": "B9", "KD": "250 to 2500"}
{"molecule": "B10", "KD": "250 to 2500"}
{"molecule": "B11", "KD": "250 to 2500"}
{"molecule": "B12", "KD": "250 to 2500"}
{"molecule": "B13", "KD": "25 to 250"}
{"molecule": "B14", "KD": "25 to 250"}
{"molecule": "B15", "KD": "25 to 250"}
{"molecule": "B16", "KD": "25 to 250"}
{"molecule": "B17", "KD": "250 to 2500"}
{"molecule": "B18", "KD": "25 to 250"}
